Reference: patent publication US7994185B2, “Benzene sulfonamide thiazole and oxazole compounds” (Glaxo Smith Kline LLC, priority 2008, dated 2011)
Structures can show the parent of a compound that is named as a salt. Where two headings read alike, the source gives them in different places.

What was measured:
[1] = system: Human colon tumor cells (Colo205); assay: Cell growth inhibition assay (CellTiter-Glo), Colo205; type: cell-based
How it was run: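 Growth is estimated from total cellular ATP measured by CellTiter-Glo luminescence after a 3-day compound exposure at 37 °C. Compounds are tested as 1:3 dilution series in 0.2% final DMSO, with inhibition expressed relative to vehicle-treated wells.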

[2] = system: Human melanoma cancer cells (SK-MEL-28); assay: Cell growth inhibition assay (CellTiter-Glo), SK-MEL-28; type: cell-based
[3] = target: T1, BRAFV600E full-length (amino acids 2-766) (Homo sapiens, UniProt P15056, V600E); assay: B-Raf Accelerated MEK ATPase assay (BRAMA); type: biochemical; details: categorized
T1 construct: His6-tagged BRAFV600E full-length (amino acids 2-766); His6; made in house; host or cells: baculovirus expression system (insect cells)
T1 sequence (P15056 2-766 V600E): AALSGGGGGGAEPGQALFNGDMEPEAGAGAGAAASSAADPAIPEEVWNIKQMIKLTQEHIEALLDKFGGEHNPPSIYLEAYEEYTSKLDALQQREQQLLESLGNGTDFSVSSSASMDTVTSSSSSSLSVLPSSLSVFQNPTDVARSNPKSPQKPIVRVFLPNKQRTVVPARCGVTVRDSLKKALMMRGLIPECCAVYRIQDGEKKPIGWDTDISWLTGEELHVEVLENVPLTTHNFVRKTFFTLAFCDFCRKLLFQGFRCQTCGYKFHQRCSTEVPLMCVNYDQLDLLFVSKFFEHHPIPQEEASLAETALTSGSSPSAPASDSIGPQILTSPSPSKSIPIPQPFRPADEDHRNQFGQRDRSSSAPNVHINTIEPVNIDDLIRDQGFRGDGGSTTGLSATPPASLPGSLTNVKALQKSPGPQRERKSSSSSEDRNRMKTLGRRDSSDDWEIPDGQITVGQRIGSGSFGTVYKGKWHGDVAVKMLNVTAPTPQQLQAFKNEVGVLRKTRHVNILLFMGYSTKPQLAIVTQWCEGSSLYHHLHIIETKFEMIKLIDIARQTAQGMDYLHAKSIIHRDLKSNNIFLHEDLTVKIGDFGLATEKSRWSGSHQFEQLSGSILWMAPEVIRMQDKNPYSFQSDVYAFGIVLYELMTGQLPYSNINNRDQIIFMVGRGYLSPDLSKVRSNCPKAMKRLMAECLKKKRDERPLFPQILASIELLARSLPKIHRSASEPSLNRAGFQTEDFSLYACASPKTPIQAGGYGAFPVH
How it was run: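 Coupled-enzyme readout: ADP generated by MEK-mediated ATP hydrolysis, uncoupled from ERK phosphorylation, is linked to NADH oxidation through pyruvate kinase and lactate dehydrogenase.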

[4] = COLO 205, Table 2b, later runs, average for the one or more runs, categorized, read-out: IC50 for Colo205
[5] = SK-MEL-28, Table 3b, later runs, average for the one or more runs, categorized, read-out: IC50 for SK-MEL-28
[6] = B-Raf pIC50, Table 1b, later runs, average pIC50 for the one or more runs
[7] = COLO 205, 72 h, Table 2a, 3 days incubation, read-out: Activity in Colo205 Tumor Cells
[8] = SK-MEL-28, 72 h, Table 3a, 3 days incubation, read-out: Activity in SK-MEL-28 Tumor Cells
[9] = B-Raf Activity, Table 1a, highest pIC50 for the one or more runs
[10] = Table 1b, later runs, average pIC50 for the one or more runs, read-out: B-Raf pIC50 (converted)

For `Nc1nccc(-c2sc(N3CCOCC3)nc2-c2cccc(NS(=O)(=O)c3ccoc3)c2F)n1` [Example 267, N-{3-[5-(2-amino-4-pyrimidinyl)-2-(4-morpholinyl)-1,3-thiazol-4-yl]-2-fluorophenyl}-3-furansulfonamide], the IC50 [1, 4] was 100 to 1000 nM, the IC50 [2, 5] was 100 to 1000 nM and the IC50 [3, 6] was no more than 3.16 nM.
`Cc1ccccc1S(=O)(=O)Nc1cccc(-c2nc(C(C)C)sc2-c2ccnc(NCC(C)C)n2)c1F` [Example 39, N-[2-Fluoro-3-(2-(1-methylethyl)-5-{2-[(2-methylpropyl)amino]-4-pyrimidinyl}-1,3-thiazol-4-yl)phenyl]-2-methylbenzenesulfonamide] was tested, and the IC50 [1, 7] was 100 to 1000 nM, the IC50 [1, 4] was 100 to 1000 nM and the IC50 [2, 8] was 100 to 1000 nM. For the same molecule, the IC50 [2, 5] was 100 to 1000 nM, the IC50 [3, 9] was less than 100 nM and the IC50 [3, 10] was 3.16 to 31.6 nM.
`O=C1CCCN1CCCNc1nccc(-c2sc(N3CCOCC3)nc2-c2cccc(NS(=O)(=O)c3cc(F)ccc3F)c2F)n1` [Example 188] gave an IC50 [1, 7] of less than 100 nM, an IC50 [1, 4] of less than 100 nM and an IC50 [2, 8] of less than 100 nM. The IC50 [2, 5] was less than 100 nM, the IC50 [3, 9] was less than 100 nM and the IC50 [3, 6] was no more than 3.16 nM.
In the case of `CC(C)c1nc(-c2ccc(F)c(NS(=O)(=O)C3CC3)c2)c(-c2ccnc(NCCS(C)(=O)=O)n2)s1` [Example 55, N-{2-fluoro-5-[2-(1-methylethyl)-5-(2-{[2-(methylsulfonyl)ethyl]amino}-4-pyrimidinyl)-1,3-thiazol-4-yl]phenyl}cyclopropanesulfonamide], the IC50 [1, 7] is reported as 100 to 1000 nM, the IC50 [1, 4] is reported as 100 to 1000 nM and the IC50 [2, 8] is reported as greater than 1000 nM. It also gave an IC50 [2, 5] of 1000 to 10000 nM, an IC50 [3, 9] of 100 to 1000 nM and an IC50 [3, 6] of 31.6 to 1000 nM.
`CCCNc1nccc(-c2sc(C(C)C)nc2-c2ccc(F)c(NS(=O)(=O)c3cc(F)ccc3F)c2)n1` [Example 120] gave an IC50 [1, 7] of 100 to 1000 nM, an IC50 [1, 4] of 100 to 1000 nM and an IC50 [2, 8] of 100 to 1000 nM. For the same molecule, the IC50 [2, 5] was 100 to 1000 nM, the IC50 [3, 9] was less than 100 nM and the IC50 [3, 10] was 3.16 to 31.6 nM.
`CC(C)c1nc(-c2cccc(NS(=O)(=O)c3cc(F)ccc3F)c2F)c(-c2ccnc(NCCNS(C)(=O)=O)n2)s1` [Example 191] gave an IC50 [1, 7] of less than 100 nM, an IC50 [1, 4] of less than 100 nM and an IC50 [2, 8] of less than 100 nM. The IC50 [2, 5] was less than 100 nM, the IC50 [3, 9] was less than 100 nM and the IC50 [3, 6] was no more than 3.16 nM.
`CC(C)c1nc(-c2cccc(NS(=O)(=O)c3cnn(C)c3)c2)c(-c2ccnc(NCCS(C)(=O)=O)n2)s1` [Example 35, 1-Methyl-N-{3-[2-(1-methylethyl)-5-(2-{[2-(methylsulfonyl)ethyl]amino}-4-pyrimidinyl)-1,3-thiazol-4-yl]phenyl}-1H-pyrazole-4-sulfonamide trifluoroacetic acid salt] showed an IC50 [1, 7] of 100 to 1000 nM, an IC50 [1, 4] of 100 to 1000 nM and an IC50 [2, 8] of 100 to 1000 nM. The IC50 [2, 5] was 100 to 1000 nM, the IC50 [3, 9] was less than 100 nM and the IC50 [3, 10] was 3.16 to 31.6 nM.
Molecule `C[C@@H]1CN(c2nc(-c3cccc(NS(=O)(=O)c4c(F)cccc4F)c3F)c(-c3ccnc(N)n3)s2)C[C@H](C)O1` [Example 143] has an IC50 [1, 7] of 100 to 1000 nM, an IC50 [1, 4] of 100 to 1000 nM and an IC50 [2, 8] of 100 to 1000 nM. The IC50 [2, 5] was 100 to 1000 nM, the IC50 [3, 9] was less than 100 nM and the IC50 [3, 10] was 3.16 to 31.6 nM.
In the case of `Nc1nccc(-c2sc(C3CCOCC3)nc2-c2cccc(NS(=O)(=O)c3c(F)cccc3F)c2Cl)n1` [Example 238, N-{3-[5-(2-amino-4-pyrimidinyl)-2-(tetrahydro-2H-pyran-4-yl)-1,3-thiazol-4-yl]-2-chlorophenyl}-2,6-difluorobenzenesulfonamide], the IC50 [1, 4] is reported as less than 100 nM, the IC50 [2, 5] is reported as less than 100 nM and the IC50 [3, 6] is reported as no more than 3.16 nM.
In the case of `CC(C)(C)c1nc(-c2cccc(NS(=O)(=O)c3cc(F)ccc3F)c2F)c(-c2ccnc(CCN3CCOCC3)n2)s1` [Example 215], the IC50 [1, 7] is reported as less than 100 nM, the IC50 [1, 4] is reported as less than 100 nM and the IC50 [2, 8] is reported as less than 100 nM. It also gave an IC50 [2, 5] of less than 100 nM, an IC50 [3, 9] of less than 100 nM and an IC50 [3, 10] of 3.16 to 31.6 nM.
In the case of `CC(C)CNc1nccc(-c2sc(N(C)C)nc2-c2cccc(NS(=O)(=O)c3c(F)cccc3F)c2)n1` [Example 113, N-[3-(2-(Dimethylamino)-5-{2-[(2-methylpropyl)amino]-4-pyrimidinyl}-1,3-thiazol-4-yl)phenyl]-2,6-difluorobenzenesulfonamide], the IC50 [1, 4] is reported as 100 to 1000 nM, the IC50 [2, 5] is reported as 100 to 1000 nM and the IC50 [3, 9] is reported as less than 100 nM. The IC50 [3, 6] was 31.6 to 1000 nM.
Work on `CC(C)(C)c1nc(-c2cccc(NS(=O)(=O)c3cc(F)ccc3F)c2F)c(-c2ccnc(CCC(=O)N3CCS(=O)(=O)CC3)n2)s1` [Example 255, N-[3-(2-(1,1-dimethylethyl)-5-{2-[3-(1,1-dioxido-4-thiomorpholinyl)-3-oxopropyl]-4-pyrimidinyl}-1,3-thiazol-4-yl)-2-fluorophenyl]-2,5-difluorobenzenesulfonamide] yielded an IC50 [1, 4] of less than 100 nM, an IC50 [2, 5] of less than 100 nM and an IC50 [3, 10] of 3.16 to 31.6 nM.
